According to patent US8530519B2, “Method for promoting upper gastrointestinal bicarbonate secretion” (Sucampo AG, priority 2006, dated 2013):

Columns and labels:
[1] = tested on: PG receptors such as EP and FP receptors; settings: Journal of Ocular Pharmacology and Therapeutics 17(5), 433-441, 2001; cited from earlier work
male Wistar rats = test: Effect on bicarbonate secretion into bile in rats after oral dosing; type: in vivo, rat
Experimental: The effect of Compound A (13,14-dihydro-15-keto-16,16-difluoro-18(S)-methyl-PGE1) on Gastrointestinal bicarbonate secretion was studied.
Seven weeks old male Wistar rats were used in this study. Compound A at a dose of 100 μg/kg was administered orally to the animals three times daily for 7 days. Control animals received an equal volume of the vehicle (distilled water containing 0.01% polysorbate 80 and 0.5% ethanol). On the next morning of the final administration (about 17 hours after the final administration), a polyethylene catheter (PE10, Becton Dickinson and Company) was inserted into the common bile duct of the animal under ether anesthesia. The animals were placed into a Borrmann's cage individually and allowed to recover from the anesthesia for 1 hour. Bile was collected for 1 hour between 1 and 2 hours after inserting the catheter. The amount of bicarbonate (HCO3^−) in the bile was measured with an automated pH/blood gas analyzer (model 170, Ciba Corning Diagnostics Corp.).

CCCCCCCC(=O)CC[C@@H]1[C@@H](C/C=C\CCCC(=O)OC(C)C)[C@@H](O)C[C@H]1O [unoprostone isopropyl]
affinity for PG receptors such as EP and FP receptors [1]: does not have affinity

CC[C@H](C)CC(F)(F)C(=O)CC[C@H]1[C@H](O)CC(=O)[C@@H]1CCCCCCC(=O)O [Compound A, 13,14-dihydro-15-keto-16,16-difluoro-18(S)-methyl-PGE1]
amount of bicarbonate secreted into the bile compared with the control group (male Wistar rats; 100 μg/kg orally three times daily for 7 days, Wistar rats): increased significantly | Bicarbonate secretion Mean ± S.E. (male Wistar rats; 100 μg/kg p.o., TID for 7 days, bile collected for 1 hour, about 17 hours after the final administration, n=7, *p < 0.05 compared with control group (control 10.16 ± 0.81)): 13.33 ± 1.00* μmol/hr/100 g body weight
